Active and inactive are the calls of the source.

In general, EC50 refers to the midpoint of the concentration-response curve. As a reminder, the IC50 is the concentration needed to halve the response being measured. In general, AC50 refers to the concentration giving half of the maximal activity seen. In general, Ki refers to a dissociation constant, usually derived from enzyme kinetics or from competition with a known ligand.

The target in test [1] is T1, Insulin-degrading enzyme (Homo sapiens, UniProt P14735).
T1 sequence (P14735 whole entry): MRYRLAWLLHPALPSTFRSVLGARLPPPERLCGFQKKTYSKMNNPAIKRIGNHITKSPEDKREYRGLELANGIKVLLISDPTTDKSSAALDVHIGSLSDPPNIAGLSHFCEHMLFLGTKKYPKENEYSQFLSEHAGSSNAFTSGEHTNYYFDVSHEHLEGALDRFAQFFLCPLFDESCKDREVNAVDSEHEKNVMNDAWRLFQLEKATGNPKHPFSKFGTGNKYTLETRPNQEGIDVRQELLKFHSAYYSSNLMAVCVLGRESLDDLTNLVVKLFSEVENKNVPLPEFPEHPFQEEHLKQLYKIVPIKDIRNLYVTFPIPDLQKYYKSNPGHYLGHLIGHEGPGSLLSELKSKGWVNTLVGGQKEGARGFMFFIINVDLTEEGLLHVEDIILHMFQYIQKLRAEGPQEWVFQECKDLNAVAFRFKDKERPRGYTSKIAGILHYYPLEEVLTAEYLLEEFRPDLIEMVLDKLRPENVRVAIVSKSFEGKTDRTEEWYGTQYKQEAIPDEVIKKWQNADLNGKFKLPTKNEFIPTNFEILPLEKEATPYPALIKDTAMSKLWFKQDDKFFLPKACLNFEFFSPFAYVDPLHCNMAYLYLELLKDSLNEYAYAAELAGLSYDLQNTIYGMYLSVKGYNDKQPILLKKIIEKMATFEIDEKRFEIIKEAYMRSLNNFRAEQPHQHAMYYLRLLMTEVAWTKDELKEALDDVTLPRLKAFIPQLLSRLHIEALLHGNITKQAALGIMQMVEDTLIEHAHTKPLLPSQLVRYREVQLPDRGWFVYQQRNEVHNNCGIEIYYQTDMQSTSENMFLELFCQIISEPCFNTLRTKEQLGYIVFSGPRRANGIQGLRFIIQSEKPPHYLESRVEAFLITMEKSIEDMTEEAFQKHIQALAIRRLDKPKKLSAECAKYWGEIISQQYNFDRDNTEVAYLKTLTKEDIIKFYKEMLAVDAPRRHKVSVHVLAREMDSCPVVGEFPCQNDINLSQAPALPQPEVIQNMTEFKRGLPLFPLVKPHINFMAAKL
In words: recombinant IDE activation, cell-free – biochemical, fluorescence polarization, counter-screen for IDE activator project, dose response (AID 588681).

For test [2], the target named is T1, Insulin-degrading enzyme. Kind of test: cellular IDE activation of Abeta substrate cleavage – fluorescence polarization, HEK cells, dose response (AID 588439). Type of test: functional, cell-based. Background: Fluorescence polarisation rises when a labelled molecule tumbles more slowly, as on binding a larger partner.
Test [3] relates to HEK293. Kind of test: membrane integrity loss in HEK cells – cell-based, fluorescence, cytotoxicity control for IDE activator project, dose response (AID 588440).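 Note: cytotoxicity by LDH release measuring loss of membrane integrity.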 Type of test: functional. As to conditions: Homo sapiens.
For test [4], the system named is HEK293. Kind of test: optical interference in Abeta FP readout, dose response, artefact control for IDE activator project, biochemical, fluorescence polarization (AID 588442). The test is classed as functional, cell-based. As to conditions: Homo sapiens.
For test [5], the target named is Multidrug resistance protein CDR1 (Candida albicans, UniProt P43071). In words: inhibition of Nile Red efflux via Candida CDR1 – S. cerevisiae AD1-8u, singleplex, Cherry Pick1 hits, dose response (AID 588606). Type of test: functional.
Test [6] is described as follows: Luminescence Cell-Based Dose Retest to Confirm Inhibitors of Cancer Stem Cells. [Related pubchem assays (depositor defined):AID2717, AID2721]. The test is classed as functional. Particulars: Homo sapiens.
Test [7] addresses T2, Sentrin-specific protease 8 (Homo sapiens, UniProt Q96LD8).
T2 sequence (Q96LD8 whole entry): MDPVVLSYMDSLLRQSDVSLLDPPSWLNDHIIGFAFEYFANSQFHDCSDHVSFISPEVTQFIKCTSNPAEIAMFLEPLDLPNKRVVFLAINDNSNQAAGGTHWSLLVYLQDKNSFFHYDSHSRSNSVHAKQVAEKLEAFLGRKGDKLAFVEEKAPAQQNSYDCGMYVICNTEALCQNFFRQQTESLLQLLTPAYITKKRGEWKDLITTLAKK
Kind of test: inhibition of human SENP8 cleavage activity – biochemical, luminescence, SAR follow-up (AID 504501). Type of test: functional.

For test [8], the target named is T3, Caspase-3 (Homo sapiens, UniProt P42574).
T3 sequence (P42574 whole entry): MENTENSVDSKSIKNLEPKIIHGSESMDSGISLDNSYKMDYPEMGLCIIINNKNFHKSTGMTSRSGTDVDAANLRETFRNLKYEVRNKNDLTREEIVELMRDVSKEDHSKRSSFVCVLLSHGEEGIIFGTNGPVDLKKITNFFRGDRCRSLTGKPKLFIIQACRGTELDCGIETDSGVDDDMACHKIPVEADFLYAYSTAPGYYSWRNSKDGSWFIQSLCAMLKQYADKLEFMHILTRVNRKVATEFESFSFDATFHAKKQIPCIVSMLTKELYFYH
Kind of test: SAR Analysis of small molecule inhibitors of Sentrin-specific proteases (SENPs) using a Caspase-3 Selectivity assay. [Related pubchem assays (depositor defined):AID2540, AID2599, AID434973, AID489001]. The test is classed as functional.

The target of test [9] is T4, Sentrin-specific protease 6 (Homo sapiens, UniProt Q9GZR1).
T4 sequence (Q9GZR1 whole entry): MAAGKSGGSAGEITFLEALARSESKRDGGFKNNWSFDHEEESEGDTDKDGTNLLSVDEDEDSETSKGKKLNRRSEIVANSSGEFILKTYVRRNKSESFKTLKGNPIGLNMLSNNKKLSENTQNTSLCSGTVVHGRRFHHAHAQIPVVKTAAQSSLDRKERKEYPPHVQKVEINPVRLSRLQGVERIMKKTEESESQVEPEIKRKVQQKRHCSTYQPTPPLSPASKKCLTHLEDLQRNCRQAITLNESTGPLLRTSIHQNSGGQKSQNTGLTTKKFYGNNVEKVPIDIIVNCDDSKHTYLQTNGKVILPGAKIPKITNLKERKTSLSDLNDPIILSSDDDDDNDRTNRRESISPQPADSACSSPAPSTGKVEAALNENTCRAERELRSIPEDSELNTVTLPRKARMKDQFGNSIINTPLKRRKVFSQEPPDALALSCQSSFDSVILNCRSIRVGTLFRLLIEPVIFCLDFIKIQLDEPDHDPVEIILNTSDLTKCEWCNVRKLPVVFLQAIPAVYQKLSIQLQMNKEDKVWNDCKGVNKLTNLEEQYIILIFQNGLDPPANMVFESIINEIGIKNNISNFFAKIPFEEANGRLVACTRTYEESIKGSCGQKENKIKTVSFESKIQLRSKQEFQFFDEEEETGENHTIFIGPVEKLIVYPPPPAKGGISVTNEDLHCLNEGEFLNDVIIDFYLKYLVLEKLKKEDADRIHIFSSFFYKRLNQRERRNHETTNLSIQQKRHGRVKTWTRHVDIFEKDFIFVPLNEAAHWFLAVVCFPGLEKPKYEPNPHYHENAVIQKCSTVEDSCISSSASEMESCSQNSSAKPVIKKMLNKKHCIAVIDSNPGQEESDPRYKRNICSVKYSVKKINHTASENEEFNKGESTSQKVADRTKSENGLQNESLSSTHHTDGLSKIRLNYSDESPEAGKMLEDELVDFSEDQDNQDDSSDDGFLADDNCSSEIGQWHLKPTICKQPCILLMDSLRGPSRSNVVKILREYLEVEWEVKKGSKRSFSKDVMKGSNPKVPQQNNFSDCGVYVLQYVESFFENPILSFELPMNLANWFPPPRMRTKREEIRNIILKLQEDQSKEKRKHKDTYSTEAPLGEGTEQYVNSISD
Kind of test: SAR Analysis of small molecule inhibitors of Sentrin-specific protease 6 (SENP6) using a Luminescent assay. [Related pubchem assays (depositor defined):AID2582, AID2599]. Type of test: functional.

Test [10] deals with T5, Sentrin-specific protease 7 (Homo sapiens, UniProt Q9BQF6).
T5 sequence (Q9BQF6 whole entry): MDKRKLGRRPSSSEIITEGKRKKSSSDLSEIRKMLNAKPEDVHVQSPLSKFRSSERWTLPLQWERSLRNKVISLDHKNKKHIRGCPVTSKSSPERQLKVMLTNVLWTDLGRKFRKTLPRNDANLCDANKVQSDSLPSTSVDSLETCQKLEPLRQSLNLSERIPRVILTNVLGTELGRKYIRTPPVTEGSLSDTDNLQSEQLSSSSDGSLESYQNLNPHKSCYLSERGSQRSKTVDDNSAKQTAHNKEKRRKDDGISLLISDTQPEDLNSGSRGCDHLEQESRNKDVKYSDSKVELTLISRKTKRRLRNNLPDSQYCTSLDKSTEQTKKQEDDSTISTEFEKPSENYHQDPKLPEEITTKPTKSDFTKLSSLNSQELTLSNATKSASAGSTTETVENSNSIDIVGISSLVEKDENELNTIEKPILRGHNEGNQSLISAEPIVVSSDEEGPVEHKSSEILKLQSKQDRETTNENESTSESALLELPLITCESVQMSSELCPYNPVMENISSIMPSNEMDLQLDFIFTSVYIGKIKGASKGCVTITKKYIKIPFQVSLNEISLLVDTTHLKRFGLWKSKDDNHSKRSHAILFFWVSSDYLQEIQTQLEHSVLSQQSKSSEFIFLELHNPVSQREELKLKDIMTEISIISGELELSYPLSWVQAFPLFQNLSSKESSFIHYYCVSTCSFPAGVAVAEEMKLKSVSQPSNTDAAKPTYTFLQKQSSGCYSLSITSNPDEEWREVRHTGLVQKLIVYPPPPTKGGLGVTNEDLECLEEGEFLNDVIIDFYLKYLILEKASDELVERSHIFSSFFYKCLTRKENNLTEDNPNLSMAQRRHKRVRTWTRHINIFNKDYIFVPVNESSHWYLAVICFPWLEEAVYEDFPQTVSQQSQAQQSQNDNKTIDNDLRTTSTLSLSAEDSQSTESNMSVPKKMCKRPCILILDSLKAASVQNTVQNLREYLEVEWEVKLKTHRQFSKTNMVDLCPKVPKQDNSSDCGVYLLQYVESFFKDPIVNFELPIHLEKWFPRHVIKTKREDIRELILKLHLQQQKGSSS
Kind of test: inhibition of human SENP7 cleavage activity – biochemical, luminescence, SAR follow-up (AID 504497). Type of test: functional.

Test [11] concerns the target Dual specificity tyrosine-phosphorylation-regulated kinase 1A (Rattus norvegicus, UniProt Q63470). The test is classed as biochemical, Homo sapiens.
Test [12] addresses Protein disulfide-isomerase (Homo sapiens, UniProt P07237). In words: inhibition of PDI-driven insulin aggregation – biochemical, turbidity, absorbance, cherry-picked samples, dose response (AID 602350). Type of test: functional.
Test [13] addresses Serine/threonine-protein kinase D2 (Homo sapiens, UniProt Q9BZL6). The test is classed as functional.
Test [14] deals with Serine/threonine-protein kinase TAO1 (Homo sapiens, UniProt Q7L7X3). Type of test: functional.
Test [15] can be described thus: rise of 2N DNA cells, HeLa – IC50, dose response (AID 1117349). Type of test: functional, cell-based.
Test [16] is described as follows: rise of 4N DNA cells, HeLa – IC50, dose response (AID 1117351). Type of test: functional, cell-based.

Sequence of Protein disulfide-isomerase (P07237 whole entry): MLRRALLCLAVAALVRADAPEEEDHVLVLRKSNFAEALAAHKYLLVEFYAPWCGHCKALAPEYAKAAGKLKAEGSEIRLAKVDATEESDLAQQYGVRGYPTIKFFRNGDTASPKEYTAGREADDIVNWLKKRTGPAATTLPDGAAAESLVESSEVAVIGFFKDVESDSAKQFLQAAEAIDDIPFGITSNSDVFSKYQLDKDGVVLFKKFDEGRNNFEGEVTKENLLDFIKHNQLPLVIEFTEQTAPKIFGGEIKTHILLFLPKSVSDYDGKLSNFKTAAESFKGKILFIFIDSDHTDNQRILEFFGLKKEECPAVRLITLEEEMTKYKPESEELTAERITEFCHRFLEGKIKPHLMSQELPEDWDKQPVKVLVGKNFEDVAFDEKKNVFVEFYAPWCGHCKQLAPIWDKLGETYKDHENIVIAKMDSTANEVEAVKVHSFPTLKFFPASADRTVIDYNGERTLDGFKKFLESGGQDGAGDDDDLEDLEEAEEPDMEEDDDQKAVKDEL
Sequence of Serine/threonine-protein kinase TAO1 (Q7L7X3 whole entry): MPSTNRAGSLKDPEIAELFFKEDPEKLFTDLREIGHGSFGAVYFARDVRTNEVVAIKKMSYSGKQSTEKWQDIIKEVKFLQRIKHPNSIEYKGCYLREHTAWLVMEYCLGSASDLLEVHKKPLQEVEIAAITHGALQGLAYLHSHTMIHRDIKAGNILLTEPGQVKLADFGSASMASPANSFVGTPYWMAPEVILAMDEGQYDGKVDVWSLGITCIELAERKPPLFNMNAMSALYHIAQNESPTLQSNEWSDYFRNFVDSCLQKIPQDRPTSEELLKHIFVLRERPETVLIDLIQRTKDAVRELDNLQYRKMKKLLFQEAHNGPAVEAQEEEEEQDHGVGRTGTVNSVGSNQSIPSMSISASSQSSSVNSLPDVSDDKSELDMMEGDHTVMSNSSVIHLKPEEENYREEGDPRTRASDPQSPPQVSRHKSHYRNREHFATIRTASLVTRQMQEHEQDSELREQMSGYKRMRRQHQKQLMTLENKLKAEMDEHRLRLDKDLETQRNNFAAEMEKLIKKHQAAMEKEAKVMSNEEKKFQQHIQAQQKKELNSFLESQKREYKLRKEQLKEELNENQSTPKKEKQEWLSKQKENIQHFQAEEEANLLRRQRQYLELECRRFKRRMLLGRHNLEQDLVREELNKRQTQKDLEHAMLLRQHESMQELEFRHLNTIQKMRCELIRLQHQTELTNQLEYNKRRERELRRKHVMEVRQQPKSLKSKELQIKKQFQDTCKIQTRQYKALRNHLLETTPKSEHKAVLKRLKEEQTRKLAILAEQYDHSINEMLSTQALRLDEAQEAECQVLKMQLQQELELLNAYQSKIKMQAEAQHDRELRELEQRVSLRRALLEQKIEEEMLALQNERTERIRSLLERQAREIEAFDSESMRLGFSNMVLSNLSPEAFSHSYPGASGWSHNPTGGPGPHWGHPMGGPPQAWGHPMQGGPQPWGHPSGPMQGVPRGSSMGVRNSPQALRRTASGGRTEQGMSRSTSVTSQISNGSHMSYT
Sequence of Serine/threonine-protein kinase D2 (Q9BZL6 whole entry): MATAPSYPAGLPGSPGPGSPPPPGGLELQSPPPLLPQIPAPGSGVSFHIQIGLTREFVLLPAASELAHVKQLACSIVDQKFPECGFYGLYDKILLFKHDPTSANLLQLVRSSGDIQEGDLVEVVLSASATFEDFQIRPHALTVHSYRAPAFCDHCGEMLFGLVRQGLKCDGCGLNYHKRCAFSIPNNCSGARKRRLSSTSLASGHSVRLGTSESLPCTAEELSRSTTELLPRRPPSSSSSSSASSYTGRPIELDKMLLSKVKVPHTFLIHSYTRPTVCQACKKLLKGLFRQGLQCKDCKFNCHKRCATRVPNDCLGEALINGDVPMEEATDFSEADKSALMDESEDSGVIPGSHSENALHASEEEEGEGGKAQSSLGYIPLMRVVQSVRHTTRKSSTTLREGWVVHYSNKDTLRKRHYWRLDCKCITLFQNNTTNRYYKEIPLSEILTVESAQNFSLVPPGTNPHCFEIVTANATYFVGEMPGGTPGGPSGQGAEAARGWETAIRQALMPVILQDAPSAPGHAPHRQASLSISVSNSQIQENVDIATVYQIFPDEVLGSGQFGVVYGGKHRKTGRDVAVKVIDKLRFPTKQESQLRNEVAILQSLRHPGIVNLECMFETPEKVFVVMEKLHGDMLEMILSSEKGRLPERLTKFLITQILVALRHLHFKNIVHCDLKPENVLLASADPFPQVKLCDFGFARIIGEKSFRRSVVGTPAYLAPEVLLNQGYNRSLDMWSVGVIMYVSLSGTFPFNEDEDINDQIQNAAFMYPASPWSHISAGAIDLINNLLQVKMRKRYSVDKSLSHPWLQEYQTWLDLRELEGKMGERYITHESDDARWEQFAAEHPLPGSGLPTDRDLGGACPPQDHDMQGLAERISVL
Sequence of Multidrug resistance protein CDR1 (P43071 whole entry, looked up): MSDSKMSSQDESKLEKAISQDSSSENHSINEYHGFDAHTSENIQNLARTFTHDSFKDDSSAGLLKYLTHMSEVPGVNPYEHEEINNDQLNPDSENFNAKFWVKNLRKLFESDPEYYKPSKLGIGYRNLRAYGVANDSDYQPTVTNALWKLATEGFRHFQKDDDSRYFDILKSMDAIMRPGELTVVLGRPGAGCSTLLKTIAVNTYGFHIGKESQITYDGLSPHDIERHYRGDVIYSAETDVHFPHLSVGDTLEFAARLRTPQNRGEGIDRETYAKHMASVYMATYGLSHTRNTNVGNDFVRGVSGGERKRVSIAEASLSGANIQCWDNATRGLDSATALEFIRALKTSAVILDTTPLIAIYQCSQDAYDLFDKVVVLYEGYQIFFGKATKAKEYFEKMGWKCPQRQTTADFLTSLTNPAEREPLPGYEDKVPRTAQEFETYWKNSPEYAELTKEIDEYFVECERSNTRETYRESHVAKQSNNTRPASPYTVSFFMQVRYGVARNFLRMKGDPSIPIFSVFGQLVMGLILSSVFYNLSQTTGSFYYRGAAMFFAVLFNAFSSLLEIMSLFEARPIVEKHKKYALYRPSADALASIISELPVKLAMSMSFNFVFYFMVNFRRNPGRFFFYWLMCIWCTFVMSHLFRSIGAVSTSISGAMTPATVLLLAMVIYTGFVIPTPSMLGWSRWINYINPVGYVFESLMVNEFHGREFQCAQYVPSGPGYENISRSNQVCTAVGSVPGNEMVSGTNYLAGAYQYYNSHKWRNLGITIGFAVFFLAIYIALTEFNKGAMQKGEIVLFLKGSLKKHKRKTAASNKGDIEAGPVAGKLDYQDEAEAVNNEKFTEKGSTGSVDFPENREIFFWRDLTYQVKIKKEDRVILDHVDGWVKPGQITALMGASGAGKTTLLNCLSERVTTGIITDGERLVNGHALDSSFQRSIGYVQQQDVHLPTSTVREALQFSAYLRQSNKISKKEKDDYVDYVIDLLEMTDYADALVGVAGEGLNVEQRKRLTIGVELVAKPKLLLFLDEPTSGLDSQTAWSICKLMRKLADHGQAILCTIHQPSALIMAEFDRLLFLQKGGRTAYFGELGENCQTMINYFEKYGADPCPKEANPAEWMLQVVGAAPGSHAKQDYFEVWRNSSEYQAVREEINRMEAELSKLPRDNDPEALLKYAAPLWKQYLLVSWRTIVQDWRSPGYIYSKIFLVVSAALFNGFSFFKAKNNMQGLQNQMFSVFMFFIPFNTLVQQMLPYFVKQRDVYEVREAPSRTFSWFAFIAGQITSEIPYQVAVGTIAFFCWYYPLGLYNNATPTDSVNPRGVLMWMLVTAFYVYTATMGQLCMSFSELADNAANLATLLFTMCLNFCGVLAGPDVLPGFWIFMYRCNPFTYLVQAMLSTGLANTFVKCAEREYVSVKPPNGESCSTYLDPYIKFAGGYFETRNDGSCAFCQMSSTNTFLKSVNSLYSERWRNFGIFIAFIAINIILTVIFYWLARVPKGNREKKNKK

For `CCc1ccc(-c2nc(C[S+]([O-])CC(=O)O)c(C)o2)cc1` (centres undefined), the EC50 in test [1] was > 54.7 µM (inactive); in test [2] it was > 54.7 µM (inactive); in test [4], > 55.9 µM (inactive). For the same compound, the IC50 in test [3] is > 89.2 µM (inactive).

As for `CCOc1ccc(NC(=O)CSc2nnc(Cc3cccn3C)n2-c2ccc(F)cc2)cc1`, the EC50 in test [5] is 0.013 µM (active).

For `Cc1cccc(N2CCN(C(S)=Nc3ccc4nc(N5CCN(C)CC5)cc(C)c4c3)CC2C)c1` (centres undefined), the AC50 in [6] is 7.58 µM (active). In addition, the EC50 in test [1], in test [2] and in test [4] was > 54.7 µM (inactive) throughout. In [3], the IC50 is 8.41 µM (active).

Take `Cc1ccc(/C=C/c2nc(-c3ccc(NS(=O)(=O)c4cccs4)cc3)no2)cc1`: the IC50 in test [7], in test [8], in test [9] and in [10] was > 99 µM (inactive) throughout.

With `C[C@@H]1O[C@@H](OC[C@@H]2O[C@H](Oc3c(-c4ccc(O)cc4)oc4cc(O)cc(O)c4c3=O)[C@@H](O)[C@H](O)[C@H]2O)[C@H](O)[C@H](O)[C@H]1O`, the AC50 in [11] was 6.66 µM (active); in test [12] it was 3.51 µM (active).

For `Cc1cc(NS(=O)(=O)c2ccc(F)c(F)c2)cc2sc(NC(=O)c3ccccc3)nc12`, the IC50 in test [7] was > 99 µM (inactive); in test [8], > 99 µM (inactive); in [9], > 99 µM (inactive); in [10], 34.3 µM (active).

With `Clc1ccc(Nc2nnc(Cc3ccncc3)c3ccccc23)cc1` [VATALANIB], the Ki in test [13] is > 10 µM (inactive); in test [14], > 7.94 µM (inactive). The IC50 in [15] and in test [16] was > 10 µM (inactive) each time.

These data come from ChEMBL document CHEMBL1201862, “PubChem BioAssay data set” (2004).
